Test results reported in PubChem BioAssay (NCI).
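Each compound was tested at five concentrations against cells in 96-well plates for 48 hours. GI50 is the concentration that inhibits growth by half. TGI denotes the concentration required for complete inhibition of growth.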

Columns and labels:
Test in all cases: NCI anticancer screen, dose series, 48 h
SN12C renal = test system: SN12C renal
OVCAR-4 ovarian = test system: OVCAR-4 ovarian
OVCAR-8 ovarian = test system: OVCAR-8 ovarian
EKVX NSCLC = test system: EKVX NSCLC
HCC-2998 colon = test system: HCC-2998 colon
SF-539 CNS = test system: SF-539 CNS
OVCAR-5 ovarian = test system: OVCAR-5 ovarian
DU-145 prostate = test system: DU-145 prostate
HOP-62 NSCLC = test system: HOP-62 NSCLC
IGROV1 ovarian = test system: IGROV1 ovarian
SK-MEL-5 melanoma = test system: SK-MEL-5 melanoma
SK-MEL-2 melanoma = test system: SK-MEL-2 melanoma
SNB-75 CNS = test system: SNB-75 CNS
NCI-H522 lung = test system: NCI-H522 lung
UACC-62 melanoma = test system: UACC-62 melanoma
ACHN renal = test system: ACHN renal
HT29 colon = test system: HT29 colon
HL-60(TB) leukemia = test system: HL-60(TB) leukemia
BT-549 breast = test system: BT-549 breast
SR leukemia = test system: SR leukemia
NCI-H23 lung = test system: NCI-H23 lung
MCF7 breast = test system: MCF7 breast
SW-620 colon = test system: SW-620 colon
PC-3 prostate = test system: PC-3 prostate
SF-268 CNS = test system: SF-268 CNS
LOX IMVI melanoma = test system: LOX IMVI melanoma
HCT-116 colon = test system: HCT-116 colon
NCI-H460 lung = test system: NCI-H460 lung
RPMI-8226 leukemia = test system: RPMI-8226 leukemia
SK-MEL-28 melanoma = test system: SK-MEL-28 melanoma
RXF 393 renal = test system: RXF 393 renal
SK-OV-3 ovarian = test system: SK-OV-3 ovarian
CCRF-CEM leukemia = test system: CCRF-CEM leukemia
TK-10 renal = test system: TK-10 renal
HOP-92 NSCLC = test system: HOP-92 NSCLC
MDA-MB-231 breast = test system: MDA-MB-231 breast
HCT-15 colon = test system: HCT-15 colon
U251 CNS = test system: U251 CNS
HS 578T breast = test system: HS 578T breast
UO-31 renal = test system: UO-31 renal
786-0 renal = test system: 786-0 renal
A549 NSCLC = test system: A549 NSCLC
T-47D breast = test system: T-47D breast
SNB-19 CNS = test system: SNB-19 CNS
MDA-MB-435 = test system: MDA-MB-435
MOLT-4 leukemia = test system: MOLT-4 leukemia
M14 melanoma = test system: M14 melanoma
MALME-3M melanoma = test system: MALME-3M melanoma
CAKI-1 renal = test system: CAKI-1 renal
NCI-H226 lung = test system: NCI-H226 lung
UACC-257 melanoma = test system: UACC-257 melanoma
OVCAR-3 ovarian = test system: OVCAR-3 ovarian
A498 renal = test system: A498 renal
KM12 colon = test system: KM12 colon
NCI/ADR-RES ovarian = test system: NCI/ADR-RES ovarian
K-562 leukemia = test system: K-562 leukemia
COLO 205 colon = test system: COLO 205 colon
SF-295 CNS = test system: SF-295 CNS

## Clc1ccc(C(Cn2ccnc2)OCc2ccsc2Cl)c(Cl)c1 (stereo not drawn)
SN12C renal
  GI50: 4.74 µM
  TGI: 18.7 µM
OVCAR-4 ovarian
  GI50: 2.34 µM
  TGI: 12.7 µM
OVCAR-8 ovarian
  GI50: 3.05 µM
  TGI: 14.3 µM
EKVX NSCLC
  GI50: 2.51 µM
  TGI: 13.4 µM
HCC-2998 colon
  GI50: 2.73 µM
  TGI: 9.46 µM
SF-539 CNS
  GI50: 4.23 µM
  TGI: 14.9 µM
OVCAR-5 ovarian
  GI50: 4.91 µM
  TGI: 18.2 µM
DU-145 prostate
  GI50: 7.69 µM
  TGI: 20.6 µM
HOP-62 NSCLC
  GI50: 4.92 µM
  TGI: 16.9 µM
IGROV1 ovarian
  GI50: 3.15 µM
  TGI: 14 µM
SK-MEL-5 melanoma
  GI50: 1.91 µM
  TGI: 4.21 µM
SK-MEL-2 melanoma
  GI50: 2.4 µM
  TGI: 5.67 µM
SNB-75 CNS
  GI50: 2.32 µM
  TGI: 8.22 µM
NCI-H522 lung
  GI50: 2.7 µM
  TGI: 9.52 µM
UACC-62 melanoma
  GI50: 3.72 µM
  TGI: 14.3 µM
ACHN renal
  GI50: 4.17 µM
  TGI: 15 µM
HT29 colon
  GI50: 2.73 µM
  TGI: 9.34 µM
HL-60(TB) leukemia
  GI50: 1.82 µM
  TGI: 4.96 µM
BT-549 breast
  GI50: 2.92 µM
  TGI: 9.01 µM
SR leukemia
  GI50: 2.28 µM
  TGI: 7.62 µM
NCI-H23 lung
  GI50: 2.18 µM
  TGI: 8.77 µM
MCF7 breast
  GI50: 3.24 µM
  TGI: 14.4 µM
SW-620 colon
  GI50: 3.27 µM
  TGI: 12.3 µM
PC-3 prostate
  GI50: 2.07 µM
  TGI: 7.62 µM
SF-268 CNS
  GI50: 4.73 µM
  TGI: 30 µM
LOX IMVI melanoma
  GI50: 2.51 µM
HCT-116 colon
  GI50: 2.84 µM
  TGI: 10.6 µM
NCI-H460 lung
  GI50: 2.84 µM
  TGI: 10.1 µM
RPMI-8226 leukemia
  GI50: 1.81 µM
  TGI: 5.53 µM
SK-MEL-28 melanoma
  GI50: 4.18 µM
  TGI: 15.3 µM
RXF 393 renal
  GI50: 3.17 µM
  TGI: 12.8 µM
SK-OV-3 ovarian
  GI50: 5.08 µM
  TGI: 16.8 µM
CCRF-CEM leukemia
  GI50: 2.4 µM
  TGI: 7.74 µM
TK-10 renal
  GI50: 3.31 µM
  TGI: 11.2 µM
HOP-92 NSCLC
  GI50: 1.6 µM
  TGI: 5.93 µM
MDA-MB-231 breast
  GI50: 4.34 µM
  TGI: 18.6 µM
HCT-15 colon
  GI50: 3.95 µM
  TGI: 14.2 µM
U251 CNS
  GI50: 2.79 µM
  TGI: 11.2 µM
HS 578T breast
  GI50: 4.44 µM
  TGI: > 100 µM
UO-31 renal
  GI50: 2.81 µM
  TGI: 11.1 µM
786-0 renal
  GI50: 2.97 µM
  TGI: 9.89 µM
A549 NSCLC
  GI50: 3.12 µM
  TGI: 14.2 µM
T-47D breast
  GI50: 4.04 µM
  TGI: 16.9 µM
SNB-19 CNS
  GI50: 5.41 µM
  TGI: 20.6 µM
MDA-MB-435
  GI50: 2.16 µM
  TGI: 5.59 µM
MOLT-4 leukemia
  GI50: 2.4 µM
  TGI: 10.5 µM
M14 melanoma
  GI50: 2.72 µM
  TGI: 8.27 µM
MALME-3M melanoma
  GI50: 2.62 µM
  TGI: 8.62 µM
CAKI-1 renal
  GI50: 2.05 µM
  TGI: 7.36 µM
NCI-H226 lung
  GI50: 5.62 µM
  TGI: 30.7 µM
UACC-257 melanoma
  GI50: 3.01 µM
  TGI: 11.8 µM
OVCAR-3 ovarian
  GI50: 5.11 µM
  TGI: 16.4 µM
A498 renal
  GI50: 2.33 µM
  TGI: 13.9 µM
KM12 colon
  GI50: 3.01 µM
  TGI: 13.5 µM
NCI/ADR-RES ovarian
  GI50: 1.91 µM
  TGI: 5.71 µM

## COc1cccc(C2=C(c3cn(C)c4ccc(Cl)cc34)C(=O)NC2=O)c1
SN12C renal
  GI50: 4.96 µM
  TGI: 14.2 µM
OVCAR-4 ovarian
  GI50: 6.96 µM
  TGI: > 25 µM
OVCAR-8 ovarian
  GI50: 6.61 µM
  TGI: > 20.3 µM
HCC-2998 colon
  GI50: 9.02 µM
  TGI: > 23 µM
SF-539 CNS
  GI50: 6.06 µM
  TGI: > 15.9 µM
OVCAR-5 ovarian
  GI50: 15.3 µM
  TGI: > 25 µM
DU-145 prostate
  GI50: 10.9 µM
  TGI: > 22.1 µM
HOP-62 NSCLC
  GI50: 7.22 µM
  TGI: 21.4 µM
IGROV1 ovarian
  GI50: 7.62 µM
  TGI: > 17.5 µM
SK-MEL-5 melanoma
  GI50: 3.63 µM
  TGI: 8.35 µM
SK-MEL-2 melanoma
  GI50: 7.24 µM
  TGI: > 18 µM
SNB-75 CNS
  GI50: 3.1 µM
  TGI: > 25 µM
NCI-H522 lung
  GI50: 5.48 µM
  TGI: > 17.9 µM
UACC-62 melanoma
  GI50: 5.67 µM
  TGI: 12.8 µM
ACHN renal
  GI50: 6.65 µM
  TGI: > 19.6 µM
HT29 colon
  GI50: 4.14 µM
  TGI: > 24.1 µM
HL-60(TB) leukemia
  GI50: 6.84 µM
  TGI: 14.6 µM
BT-549 breast
  GI50: 7.01 µM
  TGI: > 19 µM
SR leukemia
  GI50: 5.77 µM
  TGI: > 18.6 µM
NCI-H23 lung
  GI50: 7.15 µM
  TGI: > 19.1 µM
MCF7 breast
  GI50: 2.85 µM
  TGI: > 25 µM
K-562 leukemia
  GI50: 6.54 µM
  TGI: > 19.8 µM
SW-620 colon
  GI50: 8.79 µM
  TGI: > 25 µM
COLO 205 colon
  GI50: 3.92 µM
  TGI: 8.57 µM
PC-3 prostate
  GI50: 6.16 µM
  TGI: > 19.6 µM
SF-268 CNS
  GI50: 11.5 µM
  TGI: > 25 µM
LOX IMVI melanoma
  GI50: 4.92 µM
  TGI: > 16.1 µM
HCT-116 colon
  GI50: 3.8 µM
  TGI: > 13.7 µM
NCI-H460 lung
  GI50: 7.57 µM
  TGI: > 19.1 µM
RPMI-8226 leukemia
  GI50: 5.9 µM
  TGI: > 20.4 µM
SK-MEL-28 melanoma
  GI50: 7.87 µM
  TGI: > 20.5 µM
RXF 393 renal
  GI50: 3.66 µM
  TGI: 8.33 µM
SK-OV-3 ovarian
  GI50: 7.29 µM
  TGI: > 22 µM
CCRF-CEM leukemia
  GI50: 4.39 µM
  TGI: 15.7 µM
TK-10 renal
  GI50: 10.4 µM
  TGI: > 23.8 µM
HOP-92 NSCLC
  GI50: > 25 µM
  TGI: > 25 µM
MDA-MB-231 breast
  GI50: 8.3 µM
  TGI: > 20.6 µM
HCT-15 colon
  GI50: 6.4 µM
  TGI: > 25 µM
SF-295 CNS
  GI50: 5.28 µM
  TGI: > 15.1 µM
U251 CNS
  GI50: 5.94 µM
  TGI: > 16.8 µM
HS 578T breast
  GI50: 6.76 µM
  TGI: > 25 µM
UO-31 renal
  GI50: 5.07 µM
  TGI: > 17.4 µM
786-0 renal
  GI50: 6.5 µM
  TGI: > 18.9 µM
A549 NSCLC
  GI50: 6.84 µM
  TGI: > 25 µM
T-47D breast
  GI50: 4.19 µM
  TGI: 17.4 µM
SNB-19 CNS
  GI50: 13.4 µM
  TGI: > 25 µM
MDA-MB-435
  GI50: 6.48 µM
  TGI: > 16.4 µM
MOLT-4 leukemia
  GI50: 5.14 µM
  TGI: > 18.8 µM
M14 melanoma
  GI50: 10.3 µM
  TGI: > 25 µM
MALME-3M melanoma
  GI50: 13.9 µM
  TGI: > 20 µM
CAKI-1 renal
  GI50: 4.87 µM
  TGI: 16.8 µM
NCI-H226 lung
  GI50: 5.17 µM
  TGI: 19.1 µM
UACC-257 melanoma
  GI50: 9.86 µM
  TGI: > 21.5 µM
OVCAR-3 ovarian
  GI50: 7.47 µM
  TGI: > 17.2 µM
A498 renal
  GI50: 4.03 µM
  TGI: 12.5 µM
KM12 colon
  GI50: 4.95 µM
  TGI: 11.4 µM
NCI/ADR-RES ovarian
  GI50: 6.13 µM
  TGI: 19.8 µM
